Read-outs that look alike come from different tables or passages of the source. Where a SMILES comes first, the peptide text is derived from it. Bridges are numbered along the chain shown (N, C = ends). [ ]: non-standard residue; d: D form. The star is where a group is joined. Hexanoyl(4S-Me) = CC[C@H](C)CCC(=O)*; d(aIle) = CC[C@H](C)[C@@H](N)C(=O)O; d(aThr) = C[C@@H](O)[C@@H](N)C(=O)O; Tic = O=C(O)[C@@H]1Cc2ccccc2CN1; Orn = NCCC[C@H](N)C(=O)O; Dhb = C/C=C(\N)C(=O)O
What was measured:
Type in all cases: cell-based, human
DU-145 = assay: SRB colorimetric assay of cell growth and viability, DU-145; conditions: 48 hours exposure
HeLa = assay: SRB colorimetric assay of cell growth and viability, HeLa; conditions: 48 hours exposure; for CC50: read-out: LC50 HELA
PANC-1 = assay: SRB colorimetric assay of cell growth and viability, PANC-1; conditions: 48 hours exposure; for CC50: read-out: LC50 PANC-1
A-549 = assay: SRB colorimetric assay of cell growth and viability, A-549; conditions: 48 hours exposure; for GI50: read-out: GI50 A-549; for CC50: read-out: LC50 A-549
LoVo = assay: SRB colorimetric assay of cell growth and viability, LoVo; conditions: 48 hours exposure; for CC50: read-out: LC50 LOVO
K-562 = assay: SRB colorimetric assay of cell growth and viability, K-562; conditions: 48 hours exposure; for CC50: read-out: LC50 K-562
HT-29 = assay: SRB colorimetric assay of cell growth and viability, HT-29; conditions: 48 hours exposure; for GI50: read-out: GI50 HT-29; for CC50: read-out: LC50 HT-29
LoVo-Dox = assay: SRB colorimetric assay of cell growth and viability, LoVo-Dox; conditions: 48 hours exposure; for CC50: read-out: LC50 LOVO-DOX
Summary of the method: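 Human tumor cells seeded at 5×10^3/well in RPMI 1640 10% FBS, attached 18 hours, then exposed 48 hours to compound (10 to 10^−8 μg/mL). TCA-fixed, SRB-stained, OD 490 nm; triplicates give GI, TGI and LC values.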

IGROV-1 = assay: SRB colorimetric assay of cell growth and viability, IGROV-1; conditions: 48 hours exposure
SK-MEL-28 = assay: SRB colorimetric assay of cell growth and viability, SK-MEL-28; conditions: 48 hours exposure; for CC50: read-out: LC50 MEL-28
LNCaP = assay: SRB colorimetric assay of cell growth and viability, LNCaP; conditions: 48 hours exposure, SRB
Description: The finality of this assay is to interrupt the growth of a “in vitro” tumor cell culture by means a continued exhibition of the cells to the sample to be testing.
This form of the assay employs 96 well cell culture microplates of 9 mm diameter (Faircloth, 1988; Mosmann, 1983). Most of the cell lines are obtained from American Type Culture Collection (ATCC) derived from different human cancer types.
Cells are maintained in RPMI 1640 10% FBS, supplemented with 0.1 g/l penicillin and 0.1 g/l streptomycin sulfate and then incubated at 37° C., 5% CO2 and 98% humidity. For the experiments, cells were harvested from subconfluent cultures using trypsin and resuspended in fresh medium before plating.
Cells are seeded in 96 well microtiter plates, at 5×10^3 cells per well in aliquots of 195 μL medium, and they are allowed to attach to the plate surface by growing in drug free medium for 18 hours. Afterward, samples are added in aliquots of 5 μL in a ranging from 10 to 10^−8 μg/mL, dissolved in DMSO:EtOH:PBS (0.5:0.5:99). After 48 hours exposure, the antitumor effect are measured by the SRB methodology: cells are fixed by adding 50 μL of cold 50% (wt/vol) trichloroacetic acid (TCA) and incubating for 60 minutes at 4° C. Plates are washed with deionized water and dried. One hundred μL of SRB solution (0.4% wt/vol in 1% acetic acid) is added to each microtiter well and incubated for 10 minutes at room temperature. Unbound SRB is removed by washing with 1% acetic acid. Plates are air dried and bound stain is solubilized with Tris buffer. Optical densities are read on a automated spectrophotometric plate reader at a single wavelength of 490 nm.
The values for mean+/− SD of data from triplicate wells are calculated. Some parameters for cellular responses can be calculated: GI=growth inhibition, TGI=total growth inhibition (cytostatic effect) and LC=cell killing (cytotoxic effect).

HeLa-APL = assay: SRB colorimetric assay of cell growth and viability, HeLa-APL; conditions: 48 hours exposure; for CC50: read-out: LC50 HELA-APL
IGROV-ET = assay: SRB colorimetric assay of cell growth and viability, IGROV-ET; conditions: 48 hours exposure; for CC50: read-out: LC50 IGROV-ET
SK-BR-3 = assay: SRB colorimetric assay of cell growth and viability, SK-BR-3; conditions: 48 hours exposure

With `C/C=C1\NC(=O)[C@H](Cc2ccccc2)NC(=O)[C@@H](C(C)C)NC(=O)[C@@H]([C@@H](C)CC)NC(=O)[C@H](NC(=O)[C@H](NC(=O)[C@H](CCCN)NC(=O)[C@@H]2CC[C@H](c3ccccc3)N2C(=O)[C@H](NC(=O)[C@@H](NC(=O)[C@@H](NC(=O)[C@H](NC(=O)CC[C@@H](C)CC)C(C)C)[C@@H](C)O)C(C)C)C(C)C)[C@@H](C)CC)[C@@H](C)OC(=O)[C@H](C(C)C)NC1=O` [Compound 62, [(5R)-Ph-Pro^9, (4S)-MeHex^14]-KF] the “TGI DU-145” value (DU-145; SRB) was 6.43E−06 Molar, the “TGI HELA” value (HeLa; HELA) was 6.43E−06 Molar and the “TGI PANC-1” value (PANC-1; PANC-1) was 6.43E−06 Molar. The “TGI A-549” value (A-549; A-549) was 6.43E−06 Molar, the “TGI LOVO” value (LoVo; LOVO) was 6.43E−06 Molar and the “TGI K-562” value (K-562; K-562) was 6.43E−06 Molar. For the same molecule, the “TGI HT-29” value (HT-29; HT-29) was 6.43E−06 Molar, the “TGI LOVO-DOX” value (LoVo-Dox; LOVO-DOX) was 6.43E−06 Molar and the “TGI IGROV” value (IGROV-1; SRB) was 6.43E−06 Molar. For the same molecule, the “TGI MEL-28” value (SK-MEL-28; SRB) was 6.43E−06 Molar, the “TGI LN-caP” value (LNCaP) was 6.43E−06 Molar and the “TGI HELA-APL” value (HeLa-APL; HELA-APL) was 6.43E−06 Molar. For the same molecule, the “TGI IGROV-ET” value (IGROV-ET; SRB) was 6.43E−06 Molar.

For `C/C=C1\NC(=O)[C@H](Cc2cccc(Cl)c2)NC(=O)[C@@H](C(C)C)NC(=O)[C@@H]([C@@H](C)CC)NC(=O)[C@H](NC(=O)[C@H](NC(=O)[C@H](CCCN)NC(=O)[C@H]2CCCN2C(=O)[C@H](NC(=O)[C@@H](NC(=O)[C@@H](NC(=O)[C@H](NC(=O)CCCC(C)C)C(C)C)[C@@H](C)O)C(C)C)C(C)C)[C@@H](C)CC)[C@@H](C)OC(=O)[C@H](C(C)C)NC1=O` [Compound 82, [Phe(3-Cl)^3]-KF], the GI50 (DU-145; DU-145) was 209 nM, the LC50 (concentration causing 50% net cell kill) (DU-145; DU-145) was 553 nM and the “TGI DU-145” value (DU-145; DU-145) was 3.40E−07 Molar. For the same molecule, the GI50 (HeLa; HELA) was 127 nM, the “TGI HELA” value (HeLa; HELA) was 2.75E−07 Molar and the CC50 (HeLa; HELA) was 521 nM. For the same molecule, the GI50 (PANC-1; PANC-1) was 965 nM, the “TGI PANC-1” value (PANC-1; PANC-1) was 1.84E−06 Molar and the CC50 (PANC-1; PANC-1) was 1840 nM. For the same molecule, the GI50 (SK-BR-3; SK-BR-3) was 58.9 nM, the LC50 (SK-BR-3; SK-BR-3) was 184 nM and the “TGI SK-BR-3” value (SK-BR-3; SK-BR-3) was 1.04E−07 Molar. For the same molecule, the “TGI A-549” value (A-549; A-549) was 6.03E−07 Molar, the GI50 (A-549; A-549) was 291 nM and the CC50 (A-549; A-549) was 1490 nM. For the same molecule, the GI50 (LoVo; LOVO) was 40.6 nM, the “TGI LOVO” value (LoVo; LOVO) was 8.73E−08 Molar and the CC50 (LoVo; LOVO) was 180 nM. For the same molecule, the GI50 (K-562; K-562) was 658 nM, the “TGI K-562” value (K-562; K-562) was 1.02E−06 Molar and the CC50 (K-562; K-562) was 1590 nM. The “TGI HT-29” value (HT-29; HT-29) was 1.19E−07 Molar, the GI50 (HT-29; HT-29) was 77.5 nM and the CC50 (HT-29; HT-29) was 187 nM. The GI50 (LoVo-Dox; LOVO-DOX) was 45.3 nM, the “TGI LOVO-DOX” value (LoVo-Dox; LOVO-DOX) was 9.10E−08 Molar and the CC50 (LoVo-Dox; LOVO-DOX) was 892 nM. The GI50 (IGROV-1; IGROV) was 69.5 nM, the LC50 (concentration causing 50% net cell killing) (IGROV-1; IGROV) was 182 nM and the “TGI IGROV” value (IGROV-1; IGROV) was 1.13E−07 Molar. For the same molecule, the GI50 (SK-MEL-28; MEL-28) was 297 nM, the “TGI MEL-28” value (SK-MEL-28; MEL-28) was 4.41E−07 Molar and the CC50 (SK-MEL-28; MEL-28) was 935 nM. For the same molecule, the GI50 (HeLa-APL; HELA-APL) was 192 nM, the “TGI HELA-APL” value (HeLa-APL; HELA-APL) was 3.25E−07 Molar and the CC50 (HeLa-APL; HELA-APL) was 551 nM. For the same molecule, the GI50 (IGROV-ET; IGROV-ET) was 110 nM, the “TGI IGROV-ET” value (IGROV-ET; IGROV-ET) was 2.20E−07 Molar and the CC50 (IGROV-ET; IGROV-ET) was 576 nM.

For `C/C=C1\NC(=O)[C@@H]2Cc3ccccc3CN2C(=O)[C@@H](C(C)C)NC(=O)[C@@H]([C@@H](C)CC)NC(=O)[C@H](NC(=O)[C@H](NC(=O)[C@H](CCCN)NC(=O)[C@H]2CCCN2C(=O)[C@H](NC(=O)[C@@H](NC(=O)[C@@H](NC(=O)[C@H](NC(=O)CC[C@@H](C)CC)C(C)C)[C@@H](C)O)C(C)C)C(C)C)[C@@H](C)CC)[C@@H](C)OC(=O)[C@H](C(C)C)NC1=O` [Compound 77, [Tic^3, (4S)-MeHex^14]-KF] ({Hexanoyl(4S-Me)}-[dV]TV[dV][dP][Orn][d(aIle)][d(aThr)][d(aIle)][dV][Tic][Dhb]V; ester 8-C), the GI50 (DU-145; SRB) was 3630 nM, the LC50 (concentration causing 50% net cell kill) (DU-145; SRB) was 6740 nM and the “TGI DU-145” value (DU-145; SRB) was 6.71E−06 Molar. The GI50 (HeLa; SRB) was 1430 nM, the “TGI HELA” value (HeLa; SRB) was 2.29E−06 Molar and the CC50 (HeLa; SRB) was 3660 nM. For the same molecule, the GI50 (PANC-1; SRB) was 6740 nM, the “TGI PANC-1” value (PANC-1; SRB) was 6.74E−06 Molar and the CC50 (PANC-1; SRB) was 6740 nM. For the same molecule, the GI50 (SK-BR-3; SRB) was 873 nM, the LC50 (SK-BR-3; SRB) was 5510 nM and the “TGI SK-BR-3” value (SK-BR-3; SRB) was 2.19E−06 Molar. The “TGI A-549” value (A-549; SRB) was 2.58E−06 Molar, the GI50 (A-549; SRB) was 1520 nM and the CC50 (A-549; SRB) was 4400 nM. For the same molecule, the GI50 (LoVo; SRB) was 913 nM, the “TGI LOVO” value (LoVo; SRB) was 1.76E−06 Molar and the CC50 (LoVo; SRB) was 3400 nM. The GI50 (K-562; SRB) was 17 nM, the “TGI K-562” value (K-562; SRB) was 3.99E−06 Molar and the CC50 (K-562; SRB) was 6710 nM. For the same molecule, the “TGI HT-29” value (HT-29; SRB) was 2.21E−06 Molar, the GI50 (HT-29; SRB) was 1230 nM and the CC50 (HT-29; SRB) was 3970 nM. The GI50 (LoVo-Dox; SRB) was 271 nM, the “TGI LOVO-DOX” value (LoVo-Dox; SRB) was 8.32E−07 Molar and the CC50 (LoVo-Dox; SRB) was 2140 nM. The GI50 (IGROV-1; SRB) was 1610 nM, the LC50 (concentration causing 50% net cell killing) (IGROV-1; SRB) was 4260 nM and the “TGI IGROV” value (IGROV-1; SRB) was 2.62E−06 Molar. For the same molecule, the GI50 (SK-MEL-28; SRB) was 1580 nM, the “TGI MEL-28” value (SK-MEL-28; SRB) was 3.41E−06 Molar and the CC50 (SK-MEL-28; SRB) was 6710 nM. For the same molecule, the GI50 (HeLa-APL; SRB) was 1570 nM, the “TGI HELA-APL” value (HeLa-APL; SRB) was 2.53E−06 Molar and the CC50 (HeLa-APL; SRB) was 4070 nM. The GI50 (IGROV-ET; SRB) was 1420 nM, the “TGI IGROV-ET” value (IGROV-ET; SRB) was 2.34E−06 Molar and the CC50 (IGROV-ET; SRB) was 3860 nM.

— US20070117743A1, “New antitumoral compounds” (priority 2003, published 2007)
